# Measurements reported in ChEMBL document CHEMBL5104170, “Discovery of vimseltinib (DCC-3014), a highly selective CSF1R switch-control kinase inhibitor, in clinical development for the treatment of Tenosynovial Giant Cell Tumor (TGCT)” (Bioorg Med Chem Lett, 2022).
# Assays:
# [1] = Inhibition of His-Glu tagged recombinant human KIT Q694-T753 deletion mutant (565 to 935 residues) measured by spectrophotometric analysis
# NFS-60 = experiment: cells; conditions: Mus musculus, NFS-60, 72 h
# Description: Antiproliferative activity against CSF1-treated mouse NFS-60 cells measured after 72 hrs by resazurin method
# cells [2] = conditions: Homo sapiens, Osteoclast
# Description: Inhibition of RANKL-induced human osteoclast precursor cells differentiation in presence of human CSF1 and measured by tartrate-resistant acid phosphatase activity assay
# [3] = Plasma concentration in DBA/1 mouse at 7.5 mg/kg, po administered once daily for 6 days and measured at 2 hrs; assay type: ADME, organism-based; conditions: time 6 day
# [4] = Plasma concentration in DBA/1 mouse at 7.5 mg/kg, po administered once daily for 6 days and measured at 4 hrs; assay type: ADME, organism-based; conditions: time 6 day
# [5] = Plasma concentration in DBA/1 mouse at 7.5 mg/kg, po administered once daily for 6 days and measured at 6 hrs; assay type: ADME, organism-based; conditions: time 6 day
# [6] = Plasma concentration in DBA/1 mouse at 7.5 mg/kg, po administered once daily for 6 days and measured at 8 hrs; assay type: ADME, organism-based; conditions: time 6 day
# [7] = Plasma concentration in DBA/1 mouse at 7.5 mg/kg, po administered once daily for 6 days and measured at 12 hrs; assay type: ADME, organism-based; conditions: time 6 day
# [8] = Plasma concentration in DBA/1 mouse at 7.5 mg/kg, po administered once daily for 6 days and measured at 18 hrs; assay type: ADME, organism-based; conditions: time 6 day
# [9] = Plasma concentration in DBA/1 mouse at 7.5 mg/kg, po administered once daily for 6 days and measured at 24 hrs; assay type: ADME, organism-based; conditions: time 6 day
# [10] = In vivo inhibition of CSF1R in CSF1-stimulated DBA/1 mouse assessed as modulation of cFOS mRNA at 7.5 mg/kg, po administered once daily for 6 days followed by CSF1 administration through intravenously and measured at 2 hrs by RT-PCR method; assay type: functional; conditions: DBA/1, 144 h, time 6 day
# [11] = In vivo inhibition of CSF1R in CSF1-stimulated DBA/1 mouse assessed as modulation of cFOS mRNA at 7.5 mg/kg, po administered once daily for 6 days followed by CSF1 administration through intravenously and measured at 4 hrs by RT-PCR method; assay type: functional; conditions: DBA/1, 144 h, time 6 day
# [12] = In vivo inhibition of CSF1R in CSF1-stimulated DBA/1 mouse assessed as modulation of cFOS mRNA at 7.5 mg/kg, po administered once daily for 6 days followed by CSF1 administration through intravenously and measured at 6 hrs by RT-PCR method; assay type: functional; conditions: DBA/1, 144 h, time 6 day
# [13] = In vivo inhibition of CSF1R in CSF1-stimulated DBA/1 mouse assessed as modulation of cFOS mRNA at 7.5 mg/kg, po administered once daily for 6 days followed by CSF1 administration through intravenously and measured at 8 hrs by RT-PCR method; assay type: functional; conditions: DBA/1, 144 h, time 6 day
# [14] = In vivo inhibition of CSF1R in CSF1-stimulated DBA/1 mouse assessed as modulation of cFOS mRNA at 7.5 mg/kg, po administered once daily for 6 days followed by CSF1 administration through intravenously and measured at 12 hrs by RT-PCR method; assay type: functional; conditions: DBA/1, 144 h, time 6 day
# [15] = In vivo inhibition of CSF1R in CSF1-stimulated DBA/1 mouse assessed as modulation of cFOS mRNA at 7.5 mg/kg, po administered once daily for 6 days followed by CSF1 administration through intravenously and measured at 18 hrs by RT-PCR method; assay type: functional; conditions: DBA/1, 144 h, time 6 day
# [16] = In vivo inhibition of CSF1R in CSF1-stimulated DBA/1 mouse assessed as modulation of cFOS mRNA at 7.5 mg/kg, po administered once daily for 6 days followed by CSF1 administration through intravenously and measured at 24 hrs by RT-PCR method; assay type: functional; conditions: DBA/1, 144 h, time 6 day
# [17] = Aqueous solubility of compound at pH 7.4; assay type: physicochemical
# [18] = Permeability across apical to basolateral side in human Caco-2 cells; assay type: ADME, cell-based; conditions: read-out: permeability
# hERG (KCNH2) = hERG (KCNH2) (Homo sapiens, UniProt Q12809); experiment: Inhibition of hERG measured by fluorescence polarization assay; assay type: toxicity
# [19] = Plasma protein binding in mouse; assay type: ADME, cell-free; conditions: read-out: PPB (converted)
# [20] = Plasma protein binding in rat; assay type: ADME, cell-free; conditions: read-out: PPB (converted)
# [21] = Plasma protein binding in dog; assay type: ADME, cell-free, Canis lupus familiaris; conditions: read-out: PPB (converted)
# [22] = Plasma protein binding in human; assay type: ADME, cell-free; conditions: read-out: PPB (converted)
# [23] = Metabolic stability in mouse liver microsomes assessed as compound remaining at 60 mins; assay type: ADME, Microsome; conditions: read-out: Stability
# [24] = Metabolic stability in rat liver microsomes assessed as compound remaining at 60 mins; assay type: ADME, Microsome; conditions: read-out: Stability
# [25] = Metabolic stability in dog liver microsomes assessed as compound remaining at 60 mins; assay type: ADME, Canis lupus familiaris, Microsome; conditions: read-out: Stability
# [26] = Metabolic stability in human liver microsomes assessed as compound remaining at 60 mins; assay type: ADME, Microsome; conditions: read-out: Stability
# [27] = Cmax in rat at 10 mg/kg, po; assay type: ADME, organism-based; design: dose 10 mg/kg, route po; conditions: in vivo
# [28] = AUC (0 to 24 hrs) in rat at 10 mg/kg, po; assay type: ADME, organism-based; design: time < 24 hr, dose 10 mg/kg, route po; conditions: in vivo
# [29] = Tmax in rat at 10 mg/kg, po; assay type: ADME, organism-based; conditions: in vivo
# [30] = Clearance in rat at 10 mg/kg, po; assay type: ADME, organism-based; conditions: in vivo
# [31] = Volume of distribution in rat at 10 mg/kg, po; assay type: ADME, organism-based; conditions: in vivo
# [32] = Half-life in rat at 10 mg/kg, po; assay type: ADME, organism-based; conditions: in vivo
# [33] = Oral bioavailability in rat at 10 mg/kg; assay type: ADME, organism-based; conditions: in vivo
# [34] = Cmax in dog at 10 mg/kg, po; assay type: ADME, organism-based, Canis lupus familiaris; design: dose 10 mg/kg, route po; conditions: in vivo
# [35] = AUC (0 to 24 hrs) in dog at 10 mg/kg, po; assay type: ADME, organism-based, Canis lupus familiaris; design: time < 24 hr, dose 10 mg/kg, route po; conditions: in vivo
# [36] = Tmax in dog at 10 mg/kg, po; assay type: ADME, organism-based, Canis lupus familiaris; conditions: in vivo
# [37] = Clearance in dog at 10 mg/kg, po; assay type: ADME, organism-based, Canis lupus familiaris; conditions: in vivo
# [38] = Volume of distribution in dog at 10 mg/kg, po; assay type: ADME, organism-based, Canis lupus familiaris; conditions: in vivo
# [39] = Half-life in dog at 10 mg/kg, po; assay type: ADME, organism-based, Canis lupus familiaris; conditions: in vivo
# [40] = Oral bioavailability in dog at 10 mg/kg; assay type: ADME, organism-based, Canis lupus familiaris; conditions: in vivo
# [41] = target: Mast/stem cell growth factor receptor Kit (Homo sapiens, UniProt P10721); experiment: Inhibition of KIT (unknown origin) in presence of 4 mM ATP measured by cell-based spectrophotometric assay
# cells [42] = conditions: Homo sapiens
# Description: Inhibition of ABL (unknown origin) in presence of 4 mM ATP measured by cell-based spectrophotometric assay
# Sequence of Mast/stem cell growth factor receptor Kit (P10721 whole entry): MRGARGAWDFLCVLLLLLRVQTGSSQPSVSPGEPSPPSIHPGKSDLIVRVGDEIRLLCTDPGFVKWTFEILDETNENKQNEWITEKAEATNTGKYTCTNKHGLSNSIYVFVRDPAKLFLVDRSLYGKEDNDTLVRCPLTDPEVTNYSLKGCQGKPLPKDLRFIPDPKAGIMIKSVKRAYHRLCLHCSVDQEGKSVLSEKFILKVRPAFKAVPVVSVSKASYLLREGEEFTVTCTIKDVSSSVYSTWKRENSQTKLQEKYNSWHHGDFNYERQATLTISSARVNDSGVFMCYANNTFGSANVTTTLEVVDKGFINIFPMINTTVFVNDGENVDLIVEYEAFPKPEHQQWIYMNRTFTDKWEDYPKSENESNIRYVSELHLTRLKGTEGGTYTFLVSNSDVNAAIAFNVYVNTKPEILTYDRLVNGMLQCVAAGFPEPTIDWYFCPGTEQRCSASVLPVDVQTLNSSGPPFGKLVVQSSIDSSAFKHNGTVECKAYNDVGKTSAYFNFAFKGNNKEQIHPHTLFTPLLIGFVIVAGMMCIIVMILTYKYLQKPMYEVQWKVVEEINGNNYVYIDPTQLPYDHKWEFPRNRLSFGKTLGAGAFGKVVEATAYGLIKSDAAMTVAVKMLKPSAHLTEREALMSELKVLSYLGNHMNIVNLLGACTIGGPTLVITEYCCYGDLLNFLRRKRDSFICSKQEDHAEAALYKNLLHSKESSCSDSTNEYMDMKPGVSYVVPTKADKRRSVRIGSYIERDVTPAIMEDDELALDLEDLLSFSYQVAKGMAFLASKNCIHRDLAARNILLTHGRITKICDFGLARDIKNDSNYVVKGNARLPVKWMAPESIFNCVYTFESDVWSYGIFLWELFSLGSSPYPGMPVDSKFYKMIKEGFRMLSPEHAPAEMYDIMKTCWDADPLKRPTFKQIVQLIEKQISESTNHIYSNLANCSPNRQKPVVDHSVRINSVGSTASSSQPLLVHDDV
# Sequence of hERG (KCNH2) (Q12809 whole entry): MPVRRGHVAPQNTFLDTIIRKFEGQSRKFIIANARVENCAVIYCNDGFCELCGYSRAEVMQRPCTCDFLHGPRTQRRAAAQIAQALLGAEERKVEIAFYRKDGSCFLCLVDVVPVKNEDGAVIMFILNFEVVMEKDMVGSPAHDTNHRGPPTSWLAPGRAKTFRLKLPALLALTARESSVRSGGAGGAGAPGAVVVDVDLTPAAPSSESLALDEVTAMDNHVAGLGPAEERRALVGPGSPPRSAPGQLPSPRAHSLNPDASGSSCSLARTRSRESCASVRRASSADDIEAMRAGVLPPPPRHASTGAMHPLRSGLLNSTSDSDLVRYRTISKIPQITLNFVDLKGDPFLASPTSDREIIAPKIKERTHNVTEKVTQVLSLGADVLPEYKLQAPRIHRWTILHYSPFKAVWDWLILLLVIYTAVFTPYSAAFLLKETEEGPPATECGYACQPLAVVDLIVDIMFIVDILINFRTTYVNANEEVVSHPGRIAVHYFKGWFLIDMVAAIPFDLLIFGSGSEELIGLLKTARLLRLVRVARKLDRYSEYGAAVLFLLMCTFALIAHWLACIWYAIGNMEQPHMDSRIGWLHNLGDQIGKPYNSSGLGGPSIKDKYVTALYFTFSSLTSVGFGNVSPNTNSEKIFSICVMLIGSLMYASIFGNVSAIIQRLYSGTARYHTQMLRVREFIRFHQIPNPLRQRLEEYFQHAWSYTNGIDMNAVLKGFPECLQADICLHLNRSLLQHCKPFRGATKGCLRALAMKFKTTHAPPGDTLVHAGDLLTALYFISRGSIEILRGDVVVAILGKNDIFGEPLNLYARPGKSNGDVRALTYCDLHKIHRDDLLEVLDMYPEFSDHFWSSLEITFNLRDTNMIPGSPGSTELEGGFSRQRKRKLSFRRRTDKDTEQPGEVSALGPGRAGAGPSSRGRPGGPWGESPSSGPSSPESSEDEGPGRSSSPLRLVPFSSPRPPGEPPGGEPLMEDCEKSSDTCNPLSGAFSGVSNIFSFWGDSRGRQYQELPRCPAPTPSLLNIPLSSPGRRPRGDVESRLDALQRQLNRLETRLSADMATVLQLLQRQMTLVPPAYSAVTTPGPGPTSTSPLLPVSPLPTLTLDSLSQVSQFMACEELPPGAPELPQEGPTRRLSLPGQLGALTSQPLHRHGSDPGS
structure (smiles),measurement,setting,value
CCNc1ncc(-c2ccc(Oc3ccnc(-c4cnn(C)c4)c3)c(C)n2)c(=O)[nH]1,IC50,[1],2100 nM
same,IC50,NFS-60,45 nM
same,IC50,cells [2],18 nM
Cc1cc(-c2cnc(N3CCCC3)[nH]c2=O)ncc1Oc1ccnc(-c2cnn(C)c2)c1,IC50,[1],473 nM
same,IC50,NFS-60,16 nM
CC(=O)Nc1cc(Oc2ccc(-c3cnc(NC(C)C)[nH]c3=O)nc2C)ccn1,IC50,[1],277 nM
same,IC50,NFS-60,193 nM
Cc1nc(-c2cnc(N3CCCCC3)[nH]c2=O)ccc1Oc1ccnc(-c2cnn(C)c2)c1,IC50,[1],> 3300 nM
same,IC50,NFS-60,30 nM
FC(F)(F)c1ccc(CNc2ccc(Cc3c[nH]c4ncc(Cl)cc34)cn2)cn1 [PEXIDARTINIB],IC50,NFS-60,33 nM
CCn1cc(-c2cc(Oc3ccc(-c4cnc(NC(C)C)[nH]c4=O)nc3C)ccn2)cn1,IC50,[1],2000 nM
same,IC50,NFS-60,13 nM
CNc1ncc(-c2ccc(Oc3ccnc(-c4cnn(C)c4)c3)c(C)n2)c(=O)[nH]1,IC50,[1],257 nM
same,IC50,NFS-60,1300 nM
Cc1nc(-c2cnc(NC3CCCC3)[nH]c2=O)ccc1Oc1ccnc(-c2cnn(C)c2)c1,IC50,[1],990 nM
same,IC50,NFS-60,2.6 nM
CCNc1ncc(-c2ccc(Oc3ccnc(-c4ccc(C)nc4)c3)c(C)n2)c(=O)[nH]1,IC50,[1],1500 nM
same,IC50,NFS-60,1200 nM
Cc1nc(-c2cnc(NC(C)C)n(C)c2=O)ccc1Oc1ccnc(-c2cnn(C)c2)c1 [VIMSELTINIB],IC50,[1],476 nM
same,concentration at 144 h,[3],4450 ng/mL
same,concentration at 144 h,[4],4260 ng/mL
same,concentration at 144 h,[5],2360 ng/mL
same,concentration at 144 h,[6],3030 ng/mL
same,concentration at 144 h,[7],1970 ng/mL
same,concentration at 144 h,[8],1310 ng/mL
same,concentration at 144 h,[9],1380 ng/mL
same,inhibition in vivo at 7.5 mg/kg,[10],84%
same,inhibition in vivo at 7.5 mg/kg,[11],93%
same,inhibition in vivo at 7.5 mg/kg,[12],88%
same,inhibition in vivo at 7.5 mg/kg,[13],92%
same,inhibition in vivo at 7.5 mg/kg,[14],90%
same,inhibition in vivo at 7.5 mg/kg,[15],89%
same,inhibition in vivo at 7.5 mg/kg,[16],79%
same,solubility,[17],200 µM
same,Papp A→B,[18],16 ×10⁻⁶ cm/s
same,IC20,hERG (KCNH2),20000 nM
same,fraction unbound,[19],0.026
same,fraction unbound,[20],0.006
same,fraction unbound,[21],0.033
same,fraction unbound,[22],0.033
same,remaining at 1 h,[23],94.8%
same,remaining at 1 h,[24],95.2%
same,remaining at 1 h,[25],95.2%
same,remaining at 1 h,[26],100%
same,Cmax,[27],3740 nM
same,AUC,[28],38.009 µM·h
same,Tmax,[29],2.67 h
same,CL,[30],0.5 mL/min/kg
same,Vd,[31],0.69 L/kg
same,t1/2,[32],19.8 h
same,bioavailability,[33],76%
same,Cmax,[34],1010 nM
same,AUC,[35],5.432 µM·h
same,Tmax,[36],1.67 h
same,CL,[37],2.5 mL/min/kg
same,Vd,[38],1.33 L/kg
same,half-life,[39],10.6 h
same,bioavailability,[40],33%
same,IC50,[41],1600 nM
same,IC50,NFS-60,18 nM
same,IC50,cells [2],9.3 nM
same,IC50,cells [42],2900 nM
Cc1nc(-c2cnc(NC(C)C)[nH]c2=O)ccc1Oc1ccnc(-c2cnn(C)c2)c1,IC50,[1],322 nM
same,concentration at 144 h,[3],696 ng/mL
same,concentration at 144 h,[4],563 ng/mL
same,concentration at 144 h,[5],451 ng/mL
same,concentration at 144 h,[6],360 ng/mL
same,concentration at 144 h,[7],20 ng/mL
same,concentration at 144 h,[8],21 ng/mL
same,concentration at 144 h,[9],17 ng/mL
same,inhibition in vivo at 7.5 mg/kg,[10],36%
same,inhibition in vivo at 7.5 mg/kg,[11],55%
same,inhibition in vivo at 7.5 mg/kg,[12],22%
same,inhibition in vivo at 7.5 mg/kg,[13],47%
same,inhibition in vivo at 7.5 mg/kg,[14],14%
same,inhibition in vivo at 7.5 mg/kg,[15],11%
same,inhibition in vivo at 7.5 mg/kg,[16],16%
same,IC50,NFS-60,3.1 nM
same,IC50,cells [2],13 nM
Cc1nc(-c2cnc(NC3CCOCC3)[nH]c2=O)ccc1Oc1ccnc(-c2cnn(C)c2)c1,IC50,[1],3200 nM
same,IC50,NFS-60,413 nM
CCNc1ncc(-c2ccc(Oc3ccnc(-n4cnc(C)c4)c3)c(C)n2)c(=O)[nH]1,IC50,[1],1300 nM
same,IC50,NFS-60,2800 nM
Cc1nc(-c2cnc(N3CCCC3)[nH]c2=O)ccc1Oc1ccnc(-c2cnn(C)c2)c1,IC50,[1],> 3300 nM
same,IC50,NFS-60,56 nM
Cc1nc(-c2cnc(N3CCOCC3)[nH]c2=O)ccc1Oc1ccnc(-c2cnn(C)c2)c1,IC50,[1],> 3300 nM
same,IC50,NFS-60,494 nM
Cc1nc(-c2cnc(NC3CC3)[nH]c2=O)ccc1Oc1ccnc(-c2cnn(C)c2)c1,IC50,[1],> 3300 nM
same,IC50,NFS-60,55 nM
same,IC50,cells [2],16 nM
CCNc1ncc(-c2ccc(Oc3ccnc(-c4cnn(C)c4)c3)cn2)c(=O)[nH]1,IC50,[1],142 nM
same,IC50,NFS-60,97 nM
Cc1nc(-c2cnc(N(C)C)[nH]c2=O)ccc1Oc1ccnc(-c2cnn(C)c2)c1,IC50,[1],> 3300 nM
same,IC50,NFS-60,716 nM
same,IC50,cells [2],17 nM
CN(C)CC(=O)N1CCC(c2ccc(NC(=O)c3nc(C#N)c[nH]3)c(C3=CCCCC3)c2)CC1,IC50,cells [2],1.7 nM
Cc1nc(-c2cnc(NC3CC3)n(C)c2=O)ccc1Oc1ccnc(-c2cnn(C)c2)c1,IC50,[1],1700 nM
same,IC50,NFS-60,18 nM
same,IC50,cells [2],7.4 nM
CNC(=O)c1cc(Oc2ccc(-c3cnc(NC(C)C)[nH]c3=O)nc2)ccn1,IC50,[1],7400 nM
same,IC50,NFS-60,127 nM
